Among the test systems are 786-0; CAKI-1; COLO 205; HCT-15; HOP-62; HOP-92; IGROV-1; K562; M14; NCI-H226; OVCAR-8; RXF 393; SK-OV-3; TK-10; SW-620; A498.
What all share (assay): NCI-60 cell line screen, 48 h

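These data come from cells grown in 96-well plates and exposed to compound for 48 hours at five concentrations. Here, GI50 denotes the concentration required for 50% inhibition of growth.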 Calls of active or inactive are those of the source. Rule as the data show it: active = GI50 up to about 1.1 µM and inactive = higher. Some results are limits rather than exact numbers.

For `CC(C)c1ccc2c(c1)CCC1C(C)(C)[C@@H](O)CC[C@]21C` (stereo not given in full), the GI50 was 22.5 µM (inactive) with 786-0; 50.1 µM (inactive) in the assay on CAKI-1; 18.6 µM (inactive) in the assay on COLO 205; 32.7 µM in the assay on HCT-15; 19.3 µM (inactive) with HOP-62; 23.5 µM (inactive) with HOP-92. In addition, the GI50 is > 100 µM (inactive) in the assay on IGROV-1; 24.9 µM (inactive) in the assay on K562; 27.9 µM (inactive) in the assay with M14; 18.7 µM (inactive) in the assay on NCI-H226; 36.4 µM (inactive) with OVCAR-8; 21.1 µM (inactive) with RXF 393. Moreover, the values for the GI50 in the assay with SK-OV-3 and in the assay on TK-10 were 68.7 µM (inactive) and 54 µM (inactive), respectively.

Turning to `CC(C)(C)c1cc(CCC(=O)Nc2ccc(Cl)cc2)nc(S)n1`, the GI50 was > 100 µM (inactive) in the assay on 786-0; > 100 µM (inactive) in the assay on CAKI-1; > 100 µM (inactive) in the assay with COLO 205; above 100 µM in the assay on HCT-15; > 100 µM (inactive) in the assay with HOP-62; > 100 µM (inactive) in the assay with IGROV-1. In addition, the GI50 in the assay with K562, in the assay on M14, in the assay with NCI-H226, in the assay on OVCAR-8, with RXF 393 and with SK-OV-3 was > 100 µM (inactive) each time. For the same compound, the GI50 in the assay with SW-620 and with TK-10 was > 100 µM (inactive) each time.

In the case of `CCCO/S(=N\S(=O)(=O)c1ccccc1)c1ccccc1[N+](=O)[O-]` (stereo not given), the GI50 in the assay on 786-0 was > 100 µM (inactive); in the assay on CAKI-1, > 100 µM (inactive); with COLO 205, > 100 µM (inactive); in the assay with HCT-15, above 100 µM; in the assay with HOP-62, > 100 µM (inactive); in the assay with IGROV-1 it was > 100 µM (inactive). The GI50 with K562, in the assay on M14, with NCI-H226, in the assay with OVCAR-8, with SK-OV-3 and in the assay on SW-620 was > 100 µM (inactive) throughout.

Take `CC1(C)CC(=O)C(C(=O)C(=O)NC2=C(Cl)C(=O)c3ccccc3C2=O)C(=O)C1`: the GI50 is > 100 µM (inactive) with 786-0; > 100 µM (inactive) with A498; 71.8 µM (inactive) in the assay on CAKI-1; 38.7 µM (inactive) in the assay with COLO 205; 46.5 µM in the assay with HCT-15; > 100 µM (inactive) in the assay with HOP-62. Besides, the GI50 in the assay with IGROV-1 is > 100 µM (inactive); with K562, 32 µM (inactive); with M14 it was > 100 µM (inactive); in the assay with NCI-H226, 39.4 µM (inactive); in the assay on OVCAR-8, > 100 µM (inactive); in the assay on RXF 393, 70.8 µM (inactive). The GI50 in the assay on SK-OV-3, in the assay on SW-620 and in the assay with TK-10 was > 100 µM (inactive) each time.

For the compound `COC(=O)c1ccccc1NC(=O)C(=O)NNC(=O)c1ccncc1`, the GI50 is > 100 µM (inactive) in the assay with 786-0; > 100 µM (inactive) with CAKI-1; > 100 µM (inactive) in the assay on COLO 205; above 100 µM with HCT-15; > 100 µM (inactive) in the assay with HOP-62; > 100 µM (inactive) with HOP-92. The GI50 in the assay on IGROV-1, in the assay on M14, in the assay on NCI-H226, in the assay with OVCAR-8, in the assay with RXF 393 and with SK-OV-3 was > 100 µM (inactive) in each case. Besides, the GI50 with SW-620 and in the assay with TK-10 was > 100 µM (inactive) each time.

Take `COc1cccc2c1C(=O)C1(O)CCCCC21` (stereo not given): the GI50 in the assay on 786-0 was > 100 µM (inactive); with A498, > 100 µM (inactive); in the assay with CAKI-1, > 100 µM (inactive); with COLO 205 it was > 100 µM (inactive); in the assay with HCT-15, above 100 µM; with HOP-62, > 100 µM (inactive). The GI50 in the assay on IGROV-1, in the assay with K562, in the assay with M14, in the assay on NCI-H226, in the assay on OVCAR-8 and in the assay on RXF 393 was > 100 µM (inactive) throughout. The GI50 in the assay on SK-OV-3, with SW-620 and with TK-10 was > 100 µM (inactive) each time.

In the case of `Cc1c(C(Cc2ccccc2N(C)C(=O)/C=C\C(=O)O)c2c[nH]c3ccccc23)c2ccccc2n1C` (stereo not given), the GI50 was 16.4 µM (inactive) with 786-0; 17.9 µM (inactive) with A498; 19.3 µM (inactive) in the assay on CAKI-1; 14.5 µM (inactive) in the assay on COLO 205; 14.3 µM in the assay with HCT-15; 16.2 µM (inactive) in the assay with HOP-62. Besides, the GI50 was 18.2 µM (inactive) in the assay on IGROV-1; 18.7 µM (inactive) with K562; 15.4 µM (inactive) in the assay with M14; 19.3 µM (inactive) in the assay with NCI-H226; 13.2 µM (inactive) in the assay with OVCAR-8; 14.2 µM (inactive) in the assay on RXF 393. Besides, the GI50 with SK-OV-3 was 21.7 µM (inactive); with SW-620 it was 18.1 µM (inactive); in the assay with TK-10, 17.7 µM (inactive).

`[N-]=[N+]=NC(c1cn(C2CC(O)C(CO)O2)c(=O)[nH]c1=O)C(Cl)Br` (stereo not given): the GI50 in the assay on 786-0 was > 100 µM (inactive); in the assay on CAKI-1 it was > 100 µM (inactive); with COLO 205 it was > 100 µM (inactive); in the assay with HCT-15 it was above 100 µM; with HOP-92, > 100 µM (inactive); in the assay with K562, > 100 µM (inactive). For the same compound, the GI50 in the assay with NCI-H226, in the assay with OVCAR-8, in the assay on RXF 393, in the assay with SW-620 and with TK-10 was > 100 µM (inactive) throughout.

As to `CN(C)CCCNC(=O)N/N=C/c1cccc([N+](=O)[O-])c1`, the GI50 with 786-0 was > 100 µM (inactive); with HCT-15 it was above 100 µM; in the assay with IGROV-1, > 100 µM (inactive); with K562 it was > 100 µM (inactive); in the assay on M14, > 100 µM (inactive); in the assay with NCI-H226, > 100 µM (inactive). Further, the GI50 with OVCAR-8, in the assay on RXF 393, with SK-OV-3, with SW-620 and in the assay with TK-10 was > 100 µM (inactive) in each case.

Take `CCOC(=O)NC(=O)c1cn(CC(=O)NCC(=O)NCC(=O)N2CCN(CCn3c(C)nc(C(N)=O)c3N)CC2)c(=O)[nH]c1=O`: the GI50 is > 100 µM (inactive) in the assay with 786-0; > 100 µM (inactive) with A498; > 100 µM (inactive) with CAKI-1; > 100 µM (inactive) with COLO 205; above 100 µM in the assay on HCT-15; > 100 µM (inactive) in the assay on HOP-62. Besides, the GI50 in the assay with HOP-92, with IGROV-1, with K562, with M14, in the assay with OVCAR-8 and in the assay with SK-OV-3 was > 100 µM (inactive) in each case. For the same compound, the GI50 with SW-620 and in the assay with TK-10 was > 100 µM (inactive) each time.

On to `NC(Cc1ccccc1)C(=O)OCN1C(=O)C2C3C=CC(C2C1=O)C1C2C(=O)N(COC(=O)C(N)Cc4ccccc4)C(=O)C2C31` (stereo not given), for which the GI50 in the assay on 786-0 was 20.7 µM (inactive); in the assay with COLO 205 it was 17.9 µM (inactive); with HCT-15, 17.6 µM; in the assay on HOP-92, 41.8 µM (inactive); in the assay on IGROV-1, 23.9 µM (inactive); in the assay with K562, 29.6 µM (inactive). Moreover, the GI50 in the assay on M14 was 19.5 µM (inactive); with NCI-H226, 27.7 µM (inactive); in the assay on OVCAR-8, 20.2 µM (inactive); with RXF 393 it was 22.1 µM (inactive); in the assay with SK-OV-3, 27.9 µM (inactive); in the assay on SW-620 it was 23.3 µM (inactive). The GI50 with TK-10 is 39.2 µM (inactive).

For `Brc1ccc(/N=c2/nc3ccccn3n3nc(-c4ccccc4)cc23)cc1`, the GI50 in the assay with 786-0 is 19.9 µM (inactive); in the assay on CAKI-1, 15.9 µM (inactive); in the assay with COLO 205 it was > 100 µM (inactive); in the assay with HCT-15 it was 30.5 µM; in the assay with HOP-62, 15 µM (inactive); with HOP-92, 17.8 µM (inactive). Moreover, the GI50 was > 100 µM (inactive) in the assay with IGROV-1; > 100 µM (inactive) with K562; 13.7 µM (inactive) in the assay on M14; 45.2 µM (inactive) in the assay on NCI-H226; 28.3 µM (inactive) in the assay with OVCAR-8; 14.9 µM (inactive) in the assay on RXF 393. Moreover, the GI50 was > 100 µM (inactive) in the assay with SK-OV-3, 63.2 µM (inactive) in the assay on SW-620 and 29.8 µM (inactive) in the assay on TK-10.

For the compound `O=[N+]([O-])c1ccc2c(c1)OCCOCCOc1ccc([N+](=O)[O-])cc1OCCOCCO2`, the GI50 in the assay with 786-0 is > 100 µM (inactive); in the assay on A498 it was > 100 µM (inactive); in the assay with CAKI-1 it was > 100 µM (inactive); in the assay with COLO 205 it was > 100 µM (inactive); with HCT-15 it was above 100 µM; with HOP-62, > 100 µM (inactive). Also, the GI50 with IGROV-1, in the assay on K562, in the assay with M14, with NCI-H226, with OVCAR-8 and in the assay with RXF 393 was > 100 µM (inactive) in each case. Besides, the GI50 in the assay with SK-OV-3, with SW-620 and in the assay with TK-10 was > 100 µM (inactive) throughout.

`COP1(=O)CC2C(Cl)(Cl)C2(C)C1` (stereo not given): the GI50 with 786-0, with COLO 205, with HOP-62, with IGROV-1, with K562 and in the assay with M14 was > 100 µM (inactive) in each case. For the same compound, the GI50 with NCI-H226, in the assay with OVCAR-8, in the assay with RXF 393, with SK-OV-3, with SW-620 and in the assay on TK-10 was > 100 µM (inactive) in each case.
